Measurements reported in patent publication US20260337153A1, “IONIZABLE AMINE LIPIDS” (Intellia Therapeutics, Inc., priority 2023, published 2026).
Where “and” joins values, the source holds several entries; their conditions need not be identical. Equal entries are not always repeated. Where two headings read alike, the source gives them in different places.

Experiments:
[1] = pKa of unformulated amine lipid by TNS fluorescence; type: physicochemical
Procedure, shortened: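 Unformulated amine lipid was diluted from ethanol stock to approx. 100 μM in 0.1 M sodium phosphate buffers spanning pH 4.5–9.0 with TNS. Fluorescence read at ex 321/em 448 nm; normalized data fitted sigmoidally to give pKa.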

[2] = LNP average particle size and polydispersity by dynamic light scattering; type: physicochemical; details: sgRNA:mRNA 1:2; for Number mean (average particle size) / PDI (polydispersity index) / Z-avg (average particle size): LNP with 50% ionizable lipid, 3% C13 Ether (LNP #1, Compound 53: 3% PEG2K-DMG instead)
Procedure, shortened: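 Z-average (intensity-based) and number-mean diameters plus PDI measured by DLS on LNP samples diluted in PBS. LNPs carried sgRNA and Cas9 mRNA at 1:2 w/w, with lipids at 50% ionizable lipid, 38% cholesterol, 9% DSPC and 3% PEG lipid (PEG2K-DMG, C13 Ether or C14 Ether).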

[3] = sodium phosphate buffer, Table 2, unformulated amine lipid, TNS, read-out: Lipid pKa
[4] = Table 3, Experiments 1-13, LNP 50% ionizable lipid, 38% cholesterol, 9% DSPC, 3% PEG2K-DMG
[5] = sodium phosphate buffer, additional ionizable lipids (53-61), unformulated amine lipid, TNS, read-out: Lipid pKa

Structure (SMILES) | Number mean [2, 4] | PDI [2, 4] | Z-avg [2, 4] | Number mean (average particle size) ([2]; 38% cholesterol, 9% DSPC) [nm] | PDI (polydispersity index) ([2]; 38% cholesterol, 9% DSPC) | Z-avg (average particle size) ([2]; 38% cholesterol, 9% DSPC) [nm] | pKa [1, 5] | pKa ([1]; read-out: pKa) | further results
CCCCCCCCC(CCCCCCCC)OC(=O)CCCCCC(=O)OCC(CCCCCCCCC(=O)OCC(CCCC)CCCCCC)COC(=O)NCCN(CC)CC (stereo not drawn) [Compound 51, 1-(11-((2-butyloctyl)oxy)-2-((((2-(diethylamino)ethyl)carbamoyl)oxy)methyl)-11-oxoundecyl) 7-(heptadecan-9-yl) heptanedioate] | 81 nm | 0.03 | 90 nm | – | – | – | – | – | pKa [1, 3]: 6.39
CCCCCCCCC(CCCCCCCC)OC(=O)CCCCCCC(=O)OCC(COC(=O)CCCCCCC(=O)OC(CCCCCCCC)CCCCCCCC)COC(=O)NCCN(CC)CC [Compound 52, O′1,O1-(2-((((2-(diethylamino)ethyl)carbamoyl)oxy)methyl)propane-1,3-diyl) 8,8′-di(heptadecan-9-yl) di(octanedioate)] | 79 nm | 0.03 | 87 nm | 74 | 0.02 | 88 | – | – | pKa [1, 3]: 6.47; Number mean ([2]; Table 7, LNP with 3% C13 Ether): 79 nm; PDI ([2]; Table 7, LNP with 3% C13 Ether): 0.01; Z-avg ([2]; Table 7, LNP with 3% C13 Ether): 85 nm
CCCCC/C=C\C/C=C\CCCCCCCC(=O)OCC(COC(=O)CCC(OCCCCCCCC)OCCCCCCCC)COC(=O)OCCCN(CC)CC (stereo not drawn) [Compound 53] | – | – | 94 nm and 89 nm and 96 nm and 92 nm and 90 nm and 91 nm and 95 nm | 71 | 0.04 | 87 | 6.2 | – | Number mean ([2]; Table 5, PEG lipid C13 Ether): 80 nm; PDI ([2]; Table 5, PEG lipid C13 Ether): 0.02; Z-avg ([2]; Table 5, PEG lipid C13 Ether): 87 nm; Number mean ([2]; Table 5, PEG lipid C14 Ether): 90 nm; PDI ([2]; Table 5, PEG lipid C14 Ether): 0.01; Z-avg ([2]; Table 5, PEG lipid C14 Ether): 96 nm; Number mean ([2]; Table 5, PEG lipid PEG2K-DMG): 82 nm; PDI ([2]; Table 5, PEG lipid PEG2K-DMG): 0.01; Z-avg ([2]; Table 5, PEG lipid PEG2K-DMG): 87 nm
CCCCC/C=C\C/C=C\CCCCCCCC(=O)OCC(COC(=O)CCC(OCCCCCCCC)OCCCCCCCC)COC(=O)NCCN(CC)CC (stereo not drawn) [Compound 54] | 80 nm | 0.003 | 98 nm | – | – | – | 6.5 | – | –
CCCCCCCCCOC(=O)CCCCCCCN(CCO)CCCCCCCC(=O)OC(CCCCCCCC)CCCCCCCC [Compound 55] | 65 nm | 0.05 | 77 nm | – | – | – | 6.6 | – | –
CCCCC/C=C\C/C=C\CCCCCCCC(=O)OCC(COC(=O)CCCC(=O)OC(CCCCCCCC)CCCCCCCC)COC(=O)OCCCN(CC)CC (stereo not drawn) [Compound 56] | 74 nm and 80 nm | 0.04 and 0.03 | 90 nm and 86 nm | – | – | – | 6.1 | – | –
CCCCC/C=C\C/C=C\CCCCCCCC(=O)OCC(COC(=O)CCCCCC(=O)OC(CCCCCCCC)CCCCCCCC)COC(=O)OCCCN(CC)CC (stereo not drawn) [Compound 57] | 75 nm and 80 nm | – | 91 nm and 88 nm | – | – | – | 6.1 | – | –
CCCCC/C=C\C/C=C\CCCCCCCC(=O)OCC(COC(=O)CCCC(=O)OC(CCCCCCCC)CCCCCCCC)COC(=O)NCCN(CC)CC (stereo not drawn) [Compound 58] | 69 nm and 84 nm and 77 nm | – | 91 nm and 92 nm and 94 nm | – | – | – | 6.8 | – | –
CCCCC/C=C\C/C=C\CCCCCCCC(=O)OCC(COC(=O)CCCCCC(=O)OC(CCCCCCCC)CCCCCCCC)COC(=O)NCCN(CC)CC (stereo not drawn) [Compound 59] | 83 nm and 78 nm | 0.01 and 0.02 | 100 nm and 95 nm | – | – | – | 6.8 | – | –
CCCCCCCCC(CCCCCCCC)OC(=O)CCCCCCC(=O)OCC(COC(=O)CCCCCCC(=O)OC(CCCCCCCC)CCCCCCCC)COC(=O)OCCCN(CC)CC [Compound 60] | 78 nm | 0.02 | 87 nm | – | – | – | 6.1 | – | Number mean ([2]; Table 5, PEG lipid C13 Ether): 80 nm; PDI ([2]; Table 5, PEG lipid C13 Ether): 0.03; Z-avg ([2]; Table 5, PEG lipid C13 Ether): 87 nm; Number mean ([2]; Table 5, PEG lipid C14 Ether): 83 nm; PDI ([2]; Table 5, PEG lipid C14 Ether): 0.03; Z-avg ([2]; Table 5, PEG lipid C14 Ether): 95 nm; Number mean ([2]; Table 5, PEG lipid PEG2K-DMG): 77 nm; PDI ([2]; Table 5, PEG lipid PEG2K-DMG): 0.03; Z-avg ([2]; Table 5, PEG lipid PEG2K-DMG): 89 nm
CCCCCCCCC(CCCCCCCC)OC(=O)CCCCCCC(=O)OCC(COC(=O)CCCCCCC(=O)OC(CCCCCCCC)CCCCCCCC)COC(=O)NCCCN(CC)CC [Compound 61] | 39 nm | 0.16 | 74 nm | – | – | – | 7.4 | – | –
CCCCCCCCC(CCCCCCCC)OC(=O)CCCCCC(=O)OCC(COC(=O)CCCCCC(=O)OC(CCCCCCCC)CCCCCCCC)COC(=O)OCCCN1CCCC1 [Compound 64, 7,7′-di(heptadecan-9-yl) O′1,O1-(2-((((3-(pyrrolidin-1-yl)propoxy)carbonyl)oxy)methyl)propane-1,3-diyl) di(heptanedioate)] | – | – | – | 52 | 0.01 | 63 | – | 6.4 | –
CCCCCCCCC(CCCCCCCC)OC(=O)CCCCCCC(=O)OCC(COC(=O)CCCCCCC(=O)OC(CCCCCCCC)CCCCCCCC)COC(=O)OCCCN1CCCC1 [Compound 65, 8,8′-di(heptadecan-9-yl) O′1,O1-(2-((((3-(pyrrolidin-1-yl)propoxy)carbonyl)oxy)methyl)propane-1,3-diyl) di(octanedioate)] | – | – | – | 62 | 0.01 | 74 | – | 6.4 | –
CCCCCCCCC(CCCCCCCC)OC(=O)CCCCCCC(=O)OCC(CC)(COC(=O)CCCCCCC(=O)OC(CCCCCCCC)CCCCCCCC)COC(=O)NCCN(CC)CC [Compound 66, O′1,O1-(2-((((2-(diethylamino)ethyl)carbamoyl)oxy)methyl)-2-ethylpropane-1,3-diyl) 8,8′-di(heptadecan-9-yl) di(octanedioate)] | – | – | – | 64 | 0.01 | 78 | – | 6.1 | –
CCCCCCCCC(CCCCCCCC)OC(=O)CCCCCCC(=O)OCC(CC)(COC(=O)CCCCCCC(=O)OC(CCCCCCCC)CCCCCCCC)COC(=O)OCCCN1CCCC1 [Compound 67, O′1,O1-(2-ethyl-2-((((3-(pyrrolidin-1-yl)propoxy)carbonyl)oxy)methyl)propane-1,3-diyl) 8,8′-di(heptadecan-9-yl) di(octanedioate)] | – | – | – | 53 | 0.03 | 65 | – | 6.2 | –
CCCCCCCCC(CCCCCCCC)OC(=O)CCCCC(=O)OCC(COC(=O)CCCCC(=O)OC(CCCCCCCC)CCCCCCCC)COC(=O)NCCN(CC)CC [Compound 68, O,O′-(2-((((2-(diethylamino)ethyl)carbamoyl)oxy)methyl)propane-1,3-diyl) di(heptadecan-9-yl) diadipate] | – | – | – | 63 | 0.01 | 75 | – | 6.4 | –
